Laboratory results from the supplement of paper PMC4858399.

Legend:
[1] = system: Caenorhabditis elegans N2; assay: mean nematode size ln(EXT) after 48 h, plate-adjusted (DMSO control set to 6) (ln(EXT), control-adjusted); higher = larger nematodes / less growth inhibition; conditions: exposure time 48 h
Outline: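 C. elegans N2 larvae, synchronised at L1, grew for 48 h at 20°C in K-medium with killed OP50, 1% DMSO and 0.5–200 µM chemical. Mean size per well was derived from natural-logged Biosort extinction after a growth model removed debris. Adjustment across plates involved subtracting the vehicle control mean and adding 6.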

[2] = system: Caenorhabditis elegans N2; assay: lowest effective concentration for larval growth inhibition (size below effect threshold); higher = less potent; conditions: exposure time 48 h
Outline: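 Log-transformed well means of per-worm extinction, read as size on a Biosort, came from 50 C. elegans N2 L1 larvae per 96-well grown 48 h at 20°C in K-medium with killed bacteria, 1% DMSO and 0.5 to 200 µM chemical. The lowest effective concentration is the first dose at which the plate-adjusted mean size is below the threshold and stays below it at every higher dose. The threshold is 5.665.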

| Structure (SMILES) | mean nematode size ln(EXT) (ln) ([1]; 0.5 µM) | mean nematode size ln(EXT) (ln) ([1]; 1 µM) | mean nematode size ln(EXT) (ln) ([1]; 5 µM) | mean nematode size ln(EXT) (ln) ([1]; 10 µM) | mean nematode size ln(EXT) (ln) ([1]; 50 µM) | mean nematode size ln(EXT) (ln) ([1]; 100 µM) | mean nematode size ln(EXT) (ln) ([1]; 200 µM) | lowest effective concentration [2] [µM] |
| --- | --- | --- | --- | --- | --- | --- | --- | --- |
| CC(C)(O)c1ccc(CNC(=O)c2cccnc2Oc2ccc3nonc3c2)cc1 | 5.94 | 5.81 | 5.9 | 5.71 | 5.92 | 5.81 | 5.8 | > 200 |
| c1ccc2ncccc2c1 [Quinoline] | 5.87 | 5.87 | 5.78 | 5.79 | 5.78 | 5.81 | 5.73 | > 200 |
| C1N2CN3CN1CN(C2)C3 [Hexamethylenetetramine] | 5.69 | 5.77 | 5.6 | 5.54 | 5.51 | 5.41 | 5.6 | 5 |
| Cc1ccn2nc(S(=O)(=O)Nc3c(F)cccc3F)nc2n1 [Flumetsulam] | 5.91 | 5.95 | 6.03 | 6.05 | 5.93 | 6.02 | 5.88 | > 200 |
| O=c1ccc(=O)[nH][nH]1 [Maleic hydrazide] | 6.04 | 5.94 | 5.94 | 5.96 | 5.96 | 5.9 | 6.03 | > 200 |
| Cc1ccc(O)cc1 [4-Methylphenol] | 5.84 | 5.98 | 5.92 | 5.87 | 5.96 | 5.8 | 5.83 | > 200 |
| COc1ccc2sc(C(=O)Nc3nnn[nH]3)c(OC(C)C)c2c1 | 5.89 | 5.99 | 5.89 | 6.11 | 5.82 | 5.86 | 6.09 | > 200 |
